Converted amounts (≈) assume the structure as drawn. Numbered stars: 1 amine (or outer) side, 2 acyl side, 3 side chain; on linkers, the order of the positions; unused ones are H or OH. Bridge positions count the residues as written; N and C are the ends. Square brackets hold non-standard residues; d marks the D form. Ends that are not written are not given here. TATA = O=C(CC[*:1])N1CN(C(=O)CC[*:2])CN(C(=O)CC[*:3])C1; fluorescein = label appended via Sar6-Lys linker; Sar = CNCC(=O)O
Key:
[1] = test system: S. typhimurium (ATCC 19585); test: MIC assay (10 μl), S. typhimurium; type: cell-based; settings: Salmonella enterica
Method: (§1) Test compounds were dissolved at high concentration in the required solvent. Where DMSO was used to dissolve test compounds, a DMSO control with equivalent concentrations of DMSO was included for each test organism. For each test organism, a control antibiotic (for which susceptibility of the test organism was known) was tested in parallel. This allowed comparison of results between runs and validated the testing procedure and organism.
(§2) Using aseptic technique, serial 2-fold dilutions (across a 10 point range) of the test compounds were made in 5 μl of cation-adjusted Muller Hinton broth (CA-MHB), on the inverted lid of a 96-well plate. Inoculum for each test organism was made in phosphate-buffered saline (PBS) to match the turbidity of a 0.5 McFarland standard, and then diluted 100-fold. Each well (except negative control well) was inoculated with 5 μl of inoculum. For each test antibiotic, a negative control (no bacteria) was included, consisting of CA-MHB only; along with a positive control (no antibiotic) with CA-MHB and bacteria only. The base of the 96 well plate was used as a lid, and the plate was incubated inside a humidor to reduce evaporation. […] MIC was evaluated based on turbidity, using white light shone through the base of the plate to illuminate droplets.

[2] = test system: E. Coli GKCW102 (WT-pore); test: MIC assay, E. coli GKCW102; type: cell-based; settings: Escherichia coli
Method: (§3) Minimum inhibitory concentration (MIC) assays were carried out using E. coli strains from the Zgurskaya lab engineered to harbour an inducible pore to make the outer membrane permeable (Krishnamoorthy et al. (2016) doi: https://doi.org/10.1128/AAC.01882-16). Strains used: GKCW101; GKCW102; GKCW103; and GKCW104.
(§4) Overnight cultures of bacteria were first prepared by transferring a single bacterial colony into 5 mL cation-adjusted Mueller-Hinton broth (CA-MHB) supplemented with kanamycin at 50 μg/mL. The following day, overnight cultures were diluted 1/100 in 25 mL CA-MHB with 50 μg/mL kanamycin and cultured until the optical density reached 0.3 as measured on a spectrometer at 600 nm.
(§5) Filter-sterilised arabinose was then added to a concentration of 0.1% w/v and subsequently cultured until the optical density at 600 nm equalled to 1.
(§6) The cultured medium was then diluted to 1×10^6 CFU mL^−1 in CA-MHB supplemented with 0.1% w/v arabinose and 50 μg/mL kanamycin. […]
(§7) A maximum 8 μl of peptide ligand was then added into the wells of column 1 and diluted two-fold across the plate. […] The optical density at 600 nm was then measured for each of the wells using a PheraStar FSx plate reader. MIC values were determined as the cutoff concentration between visible growth and no growth of the bacteria.

E. Coli GKCW103 (ΔToIC) = test: MIC assay, E. coli GKCW103; type: cell-based; settings: Escherichia coli
Method: as §3, §4, §5, §6, §7

E. coli (ATCC 25922) = test: MIC assay (10 μl), E. coli ATCC 25922; type: cell-based; settings: Escherichia coli, ATCC25922
Method: as §1, §2

PBP3 of E. coli [3] = target: T1, PBP3 of E. coli (Escherichia coli, UniProt P0AD68); test: Fluorescence polarisation competition binding assay Method 1 (BODIPY labelled penicillin tracer); settings: competition with Bocillin (BODIPY-penicillin)
Method: Fluorescence polarisation competition was carried out using a BODIPY labelled Penicillin tracer and unlabelled peptides, for competition to an unmodified PBP protein. Polarisation was measured using a PHERAstar FS by BMG Labtech fitted with a FP 485 520 520 optic module.
Fluorescent BODIPY labelled penicillin at 5 mM in DMSO were diluted to 6.25 nM in binding buffer (10 mM HEPES, pH8, 300 mM NaCl, 2% glycerol). Unmodified PBP were diluted to 2 μM in binding buffer. A two-fold dilution series of unmodified peptide was prepared across 12 wells in binding buffer, with the highest final well concentration being 60 μM, and the lowest concentration being 50 nM. 5 μl of the unmodified peptide dilution series or Carbenicillin were added to 12 wells of a 384-Well NBS™ Low Volume Microplate (Fisher Scientific). 10 μl diluted fluorescent BODIPY labelled penicillin (6.25 nM) were then added to the 12 wells containing the unmodified peptide dilutions. […]
Fluorescence polarisation was measured every 5 minutes for a period of one hour at room temperature. […]
Data were analysed in GraphPad software to derive values for the inhibition constant. […]

E. cloacae (NCTC 13405) = test: MIC assay (10 μl), E. cloacae; type: cell-based; settings: Enterobacter cloacae, NCTC13405
Method: as §1, §2

E. Coli GKCW101 (WT) = test: MIC assay, E. coli GKCW101; type: cell-based; settings: Escherichia coli
Method: as §3, §4, §5, §6, §7

PBP3 of E. coli [4] = target: T1, PBP3 of E. coli; test: Fluorescence polarisation direct binding assay, PBP 3; settings: PBP Tested 3 (E. coli); fluorescent ligand
Method: Fluorescence polarisation was carried out using fluorescein-labelled peptides with unmodified PBP protein and measured using a PHERAstar FS by BMG Labtech fitted with a FP 485 520 520 optic module.
Fluorescent peptides at 10 mM in DMSO were diluted to 2.5 nM in binding buffer (10 mM HEPES, pH8, 300 mM NaCl, 2% glycerol). A two-fold dilution series of PBP protein was then prepared across 12 wells in binding buffer, with the highest concentration being 21 μM, and the lowest concentration being 17 nM.
10 μl diluted fluorescent peptide (2.5 nM) was added into 12 wells of a 384-Well NBS™ Low Volume Microplate (Fisher Scientific). 10 μl PBP dilution series was then added to the wells containing the fluorescent peptide, and 5 μl binding buffer was added to bring the total volume to 25 μl and the final concentration of peptide tracer to 1 nM. A control well lacking PBP protein was prepared with a final peptide concentration of 1 nM to a final volume of 25 μl in binding buffer. Fluorescence polarisation was measured every 5 minutes for a period of one hour at room temperature. The gain and focal height were optimised using the control well lacking protein. […]
Data were analysed in GraphPad software to derive values for the dissociation constant. […]
Of note, the direct binding values presented herein utilise a peptide ligand bound to a fluorescence tracer molecule.

S. pneumoniae PBP1a = target: T2, S. pneumoniae PBP1a (S. pneumoniae, UniProt Q04707 37-719, limits assumed); test: fluorescence polarisation direct binding; fluorescein-labelled peptide, PBP titrated
T2 sequence (looked up): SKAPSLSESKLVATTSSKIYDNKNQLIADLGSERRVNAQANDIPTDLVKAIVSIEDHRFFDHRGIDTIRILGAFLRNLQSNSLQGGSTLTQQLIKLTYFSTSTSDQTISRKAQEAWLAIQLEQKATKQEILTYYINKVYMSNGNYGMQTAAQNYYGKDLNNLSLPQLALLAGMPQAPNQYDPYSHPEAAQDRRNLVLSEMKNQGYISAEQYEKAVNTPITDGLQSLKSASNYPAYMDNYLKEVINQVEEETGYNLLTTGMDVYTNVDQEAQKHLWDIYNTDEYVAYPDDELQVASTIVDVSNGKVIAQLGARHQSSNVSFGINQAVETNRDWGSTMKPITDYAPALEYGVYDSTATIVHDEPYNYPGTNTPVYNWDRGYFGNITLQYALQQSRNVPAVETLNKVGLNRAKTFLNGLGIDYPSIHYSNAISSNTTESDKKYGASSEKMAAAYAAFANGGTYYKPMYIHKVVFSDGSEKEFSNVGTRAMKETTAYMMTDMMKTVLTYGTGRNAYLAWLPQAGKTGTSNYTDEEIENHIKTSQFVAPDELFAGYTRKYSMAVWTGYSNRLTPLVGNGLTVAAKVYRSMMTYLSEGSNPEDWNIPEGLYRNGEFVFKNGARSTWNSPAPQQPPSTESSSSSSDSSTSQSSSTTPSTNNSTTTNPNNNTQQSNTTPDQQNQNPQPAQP

PBP3 of P. aeruginosa = target: T3, PBP3 of P. aeruginosa (P. aeruginosa, UniProt G3XD46 50-579, limits assumed); test: as above
T3 construct: also called P. aeruginosa PBP3

PBP3 of E. coli [5] = target: T4, PBP3 of E. coli (E. coli, UniProt P0AD68 57-577, limits assumed); test: as above
T4 construct: also called E. coli PBP3; FtsI
T4 sequence (looked up): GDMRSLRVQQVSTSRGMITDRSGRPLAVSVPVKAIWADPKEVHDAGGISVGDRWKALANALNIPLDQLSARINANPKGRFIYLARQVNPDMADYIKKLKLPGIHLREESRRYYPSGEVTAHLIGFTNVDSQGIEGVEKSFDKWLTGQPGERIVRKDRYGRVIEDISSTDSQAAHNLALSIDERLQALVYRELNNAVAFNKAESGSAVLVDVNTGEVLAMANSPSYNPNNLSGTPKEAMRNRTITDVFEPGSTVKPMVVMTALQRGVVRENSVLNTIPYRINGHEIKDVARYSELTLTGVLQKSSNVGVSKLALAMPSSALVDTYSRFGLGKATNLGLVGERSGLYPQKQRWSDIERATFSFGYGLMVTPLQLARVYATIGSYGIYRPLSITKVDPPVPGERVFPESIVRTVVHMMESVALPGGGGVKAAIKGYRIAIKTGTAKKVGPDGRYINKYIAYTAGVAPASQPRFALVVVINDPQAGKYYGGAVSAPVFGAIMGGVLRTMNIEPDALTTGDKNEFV

T1 sequence (P0AD68 1-577): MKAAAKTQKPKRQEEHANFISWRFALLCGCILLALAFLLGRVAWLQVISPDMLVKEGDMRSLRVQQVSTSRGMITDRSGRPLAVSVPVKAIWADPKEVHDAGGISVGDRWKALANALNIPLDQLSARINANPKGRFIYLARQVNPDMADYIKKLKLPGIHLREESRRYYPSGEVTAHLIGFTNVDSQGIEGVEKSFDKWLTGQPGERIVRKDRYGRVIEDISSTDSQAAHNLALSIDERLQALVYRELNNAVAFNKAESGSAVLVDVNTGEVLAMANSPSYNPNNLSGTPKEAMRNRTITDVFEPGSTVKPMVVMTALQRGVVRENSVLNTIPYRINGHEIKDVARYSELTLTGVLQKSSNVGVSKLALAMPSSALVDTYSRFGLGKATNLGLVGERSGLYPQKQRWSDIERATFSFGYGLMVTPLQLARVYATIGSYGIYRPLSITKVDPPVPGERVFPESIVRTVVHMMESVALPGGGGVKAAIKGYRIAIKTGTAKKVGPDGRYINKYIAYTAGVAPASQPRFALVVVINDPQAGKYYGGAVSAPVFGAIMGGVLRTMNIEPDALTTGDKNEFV
T3 sequence (G3XD46 50-579 limits assumed): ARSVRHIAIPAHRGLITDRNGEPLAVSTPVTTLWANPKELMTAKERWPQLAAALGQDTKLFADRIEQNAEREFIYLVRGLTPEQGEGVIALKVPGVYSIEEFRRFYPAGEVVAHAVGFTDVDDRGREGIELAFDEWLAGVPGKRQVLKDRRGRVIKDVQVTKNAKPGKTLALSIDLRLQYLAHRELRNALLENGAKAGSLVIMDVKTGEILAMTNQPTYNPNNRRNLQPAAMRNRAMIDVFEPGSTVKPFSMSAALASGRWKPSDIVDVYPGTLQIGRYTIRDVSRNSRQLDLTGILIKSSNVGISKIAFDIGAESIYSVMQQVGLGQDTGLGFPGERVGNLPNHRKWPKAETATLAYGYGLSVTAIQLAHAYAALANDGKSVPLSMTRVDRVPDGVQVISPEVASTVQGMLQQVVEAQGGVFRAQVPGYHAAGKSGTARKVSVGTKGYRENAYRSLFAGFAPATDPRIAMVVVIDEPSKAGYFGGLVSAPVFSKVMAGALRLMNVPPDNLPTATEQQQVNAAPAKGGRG

In the case of `CC1(C)S[C@@H]2[C@H](NC(=O)C(C(=O)O)c3ccccc3)C(=O)N2[C@H]1C(=O)O` (stereo partly drawn) [Carbenicillin, reference compound], the MIC [1] is reported as 16 µg/mL (≈ 42.3 µM), the MIC [2] is reported as 0.8 µg/mL (≈ 2.11 µM) and the MIC (E. Coli GKCW103 (ΔToIC)) is reported as 2.3 µg/mL (≈ 6.08 µM). It also gave an MIC (E. coli (ATCC 25922)) of 16 µg/mL (≈ 42.3 µM), a Ki (PBP3 of E. coli [3]) of 520 nM and an MIC (E. cloacae (NCTC 13405)) of 256 µg/mL (≈ 677 µM). The MIC (E. Coli GKCW101 (WT)) was 14 µg/mL (≈ 37 µM).

For `Cc1cc(C)n2c1C=C1C=CC(CCC(=O)Nc3ccc(OCC(=O)N[C@@H]4C(=O)N5[C@@H]4SC(C)(C)[C@@H]5C(=O)O)cc3)=[N+]1[B-]2(F)F` [Bocillin], the Kd (PBP3 of E. coli [4]) was 440 nM.

B1: BCY9383 with fluorescein appended to the C-terminus with a Sar6-Lysine linker (peptide)
peptide: ACHDWDYRHLCYWRCA[Sar][Sar][Sar][Sar][Sar][Sar]K-fluorescein
modifications: linker 2-11-15 via TATA
notes: Bicyclic peptide
For B1, the Kd (S. pneumoniae PBP1a) was 400 nM.

B2: BCY12130 with fluorescein appended to the C-terminus with a Sar6-Lysine linker (peptide)
peptide: ACSFPKCPWVEGCA
modifications: Ci, Cii and Ciii cyclised with TATA scaffold; fluorescein appended to the C-terminus with a Sar6-Lysine linker
notes: Bicyclic peptide
B2 was tested, and the binding result (PBP3 of P. aeruginosa) was “no binding” and the Kd (PBP3 of E. coli [5]) was 2000 nM.

B3: BCY9378 with fluorescein appended to the C-terminus with a Sar6-Lysine linker (peptide)
peptide: ACPYTSCPPHTMCA[Sar][Sar][Sar][Sar][Sar][Sar]K-fluorescein
modifications: linker 2-7-13 via TATA
notes: Bicyclic peptide
B3 was tested, and the Kd (S. pneumoniae PBP1a) was 80 nM.

— patent US20220281918A1, “PBP BINDING BICYCLIC PEPTIDE LIGANDS” (BicycleTx Limited, priority 2019, published 2022)
